The values below are quoted from earlier work in US10783985B2, “Physics-based computational methods for predicting compound solubility” (Schrödinger, LLC, priority 2015, dated 2020).

For the series the following is noted: for Expt. Solubility: Table 1, experimentally determined.
Where [1] appears, read: experimental, Ilevbare and Taylor 2013.

On to `CC(=O)Nc1ccc(O)cc1` [acetaminophen], for which the aqueous solubility (experimental, NIH Pubchem database, printed conversion of the mg/L value) is recorded as ~36,000 μM. Consider `Clc1ccccc1C(c1ccccc1)(c1ccccc1)n1ccnc1` [clotrimazole], for which the “Expt. Solubility” value is 1.16 µM. Take `CN1CCN(C2=Nc3cc(Cl)ccc3Nc3ccccc32)CC1` [clozapine]: the “Expt. Solubility” value was 26.93 µM. With `CCOC(=O)C1=C(C)NC(C)=C(C(=O)OC)C1c1cccc(Cl)c1Cl` (stereo not shown) [felodipine], under setting [1], the “"amorphous" solubility” value was 22.1 µM and the “"equilibrium" solubility” value was 2.5 µM. The “solubility class (BCS), experimental data” value (felodipine comparison data) is “low solubility (BCS Class II/IV)”. With `COc1ccc2c(c1)c(CC(=O)O)c(C)n2C(=O)c1ccc(Cl)cc1` [indomethacin], the “Expt. Solubility” value was 8.38 µM.
